Experimental data from paper doi:10.1101/2024.04.17.589937v1 (biorxiv, 2024).

Experiments:
[1] = biological target: T1, human mitochondrial RNA polymerase (POLRMT) (Homo sapiens, UniProt O00411); test: single nucleotide incorporation rate assay; assay type: biochemical
DNA Pol α = DNA Pol α (Homo sapiens, UniProt P09884); test: human DNA polymerase inhibition assay; assay type: biochemical
DNA Pol γ = DNA Pol γ (Homo sapiens, UniProt P54098); test: human DNA polymerase inhibition assay; assay type: biochemical
Sequence of DNA Pol γ (Q9UHN1 26-485): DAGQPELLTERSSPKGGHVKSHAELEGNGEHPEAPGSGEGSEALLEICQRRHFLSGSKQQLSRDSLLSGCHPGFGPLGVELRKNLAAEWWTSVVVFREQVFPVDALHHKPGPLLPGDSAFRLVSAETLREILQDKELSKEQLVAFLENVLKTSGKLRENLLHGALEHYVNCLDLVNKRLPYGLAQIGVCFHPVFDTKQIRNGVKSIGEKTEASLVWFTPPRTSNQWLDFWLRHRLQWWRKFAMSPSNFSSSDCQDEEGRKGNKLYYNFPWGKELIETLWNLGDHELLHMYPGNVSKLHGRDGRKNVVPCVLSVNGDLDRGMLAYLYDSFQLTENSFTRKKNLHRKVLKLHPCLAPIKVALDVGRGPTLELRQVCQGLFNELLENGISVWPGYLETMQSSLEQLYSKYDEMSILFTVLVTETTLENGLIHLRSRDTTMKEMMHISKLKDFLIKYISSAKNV
Sequence of DNA Pol γ (P54098 whole entry): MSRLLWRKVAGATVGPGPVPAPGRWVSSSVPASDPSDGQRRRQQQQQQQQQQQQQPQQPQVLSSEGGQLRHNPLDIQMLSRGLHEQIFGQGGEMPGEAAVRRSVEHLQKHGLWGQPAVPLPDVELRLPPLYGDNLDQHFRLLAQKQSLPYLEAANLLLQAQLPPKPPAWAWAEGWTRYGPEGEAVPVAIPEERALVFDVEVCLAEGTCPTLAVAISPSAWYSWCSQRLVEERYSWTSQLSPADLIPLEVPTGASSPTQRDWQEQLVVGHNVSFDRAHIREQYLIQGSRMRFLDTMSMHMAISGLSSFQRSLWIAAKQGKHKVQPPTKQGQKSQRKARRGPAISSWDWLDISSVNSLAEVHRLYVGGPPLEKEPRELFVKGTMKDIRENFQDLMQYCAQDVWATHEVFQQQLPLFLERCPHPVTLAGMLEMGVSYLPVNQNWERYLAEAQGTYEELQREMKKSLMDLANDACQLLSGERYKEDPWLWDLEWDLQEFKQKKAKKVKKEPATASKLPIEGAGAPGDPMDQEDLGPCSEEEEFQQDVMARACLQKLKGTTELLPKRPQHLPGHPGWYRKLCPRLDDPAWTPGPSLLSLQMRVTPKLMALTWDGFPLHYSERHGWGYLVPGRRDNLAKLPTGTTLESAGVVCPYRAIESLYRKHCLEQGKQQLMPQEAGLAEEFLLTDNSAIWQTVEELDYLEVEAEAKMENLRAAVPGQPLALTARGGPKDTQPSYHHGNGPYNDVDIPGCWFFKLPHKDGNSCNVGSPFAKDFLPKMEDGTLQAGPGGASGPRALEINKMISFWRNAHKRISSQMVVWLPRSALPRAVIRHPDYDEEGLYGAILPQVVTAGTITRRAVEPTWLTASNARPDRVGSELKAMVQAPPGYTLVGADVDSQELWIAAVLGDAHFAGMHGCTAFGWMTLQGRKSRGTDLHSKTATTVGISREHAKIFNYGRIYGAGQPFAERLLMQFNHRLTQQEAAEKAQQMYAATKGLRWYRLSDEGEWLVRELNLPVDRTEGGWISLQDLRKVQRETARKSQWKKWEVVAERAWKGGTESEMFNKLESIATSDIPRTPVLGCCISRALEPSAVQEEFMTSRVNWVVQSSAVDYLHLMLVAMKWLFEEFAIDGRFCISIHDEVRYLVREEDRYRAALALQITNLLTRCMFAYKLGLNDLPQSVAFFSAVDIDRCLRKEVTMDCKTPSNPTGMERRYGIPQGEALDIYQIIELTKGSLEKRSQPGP

[2] = biological target: T1, human mitochondrial RNA polymerase (POLRMT); test: biochemical
[3] = system: Human metapneumovirus hMPV A1; test: microbe, parasite or virus in culture; conditions: LLC-MK2, read-out: hMPV A1 EC50 (µM)
[4] = system: Human rhinovirus A16 RV-A 16; test: microbe, parasite or virus in culture; conditions: H1-HeLa, read-out: RV EC50 (µM)
[5] = system: Human rhinovirus B14 RV-B 14; test: microbe, parasite or virus in culture; conditions: H1-HeLa, read-out: RV EC50 (µM)
EV-D68 [6] = test: microbe, parasite or virus in culture; conditions: Enterovirus D, EVD68, RD, read-out: EV EC50 (µM)
Enterovirus A71 EV-71 = test: microbe, parasite or virus in culture; conditions: Enterovirus A, EV71, RD, read-out: EV EC50 (µM)
[7] = system: Influenza A virus FluA H1N1; test: microbe, parasite or virus in culture; conditions: H1N1, MDCK, read-out: FluA H1N1 EC50 (µM)
[8] = system: Human rhinovirus A16 RV-A 16; conditions: read-out: H1 HeLa CC50, h1 hela cells, 96 h
EV-D68 [9] = conditions: read-out: RD CC50; human, rd cells
MDCK = conditions: read-out: MDCK CC50, dog
LLC-MK2 = conditions: monkey, llc-mk2 cells
in vitro = conditions: human, a549-hace2 cells

T1 sequence (O00411 42-1230): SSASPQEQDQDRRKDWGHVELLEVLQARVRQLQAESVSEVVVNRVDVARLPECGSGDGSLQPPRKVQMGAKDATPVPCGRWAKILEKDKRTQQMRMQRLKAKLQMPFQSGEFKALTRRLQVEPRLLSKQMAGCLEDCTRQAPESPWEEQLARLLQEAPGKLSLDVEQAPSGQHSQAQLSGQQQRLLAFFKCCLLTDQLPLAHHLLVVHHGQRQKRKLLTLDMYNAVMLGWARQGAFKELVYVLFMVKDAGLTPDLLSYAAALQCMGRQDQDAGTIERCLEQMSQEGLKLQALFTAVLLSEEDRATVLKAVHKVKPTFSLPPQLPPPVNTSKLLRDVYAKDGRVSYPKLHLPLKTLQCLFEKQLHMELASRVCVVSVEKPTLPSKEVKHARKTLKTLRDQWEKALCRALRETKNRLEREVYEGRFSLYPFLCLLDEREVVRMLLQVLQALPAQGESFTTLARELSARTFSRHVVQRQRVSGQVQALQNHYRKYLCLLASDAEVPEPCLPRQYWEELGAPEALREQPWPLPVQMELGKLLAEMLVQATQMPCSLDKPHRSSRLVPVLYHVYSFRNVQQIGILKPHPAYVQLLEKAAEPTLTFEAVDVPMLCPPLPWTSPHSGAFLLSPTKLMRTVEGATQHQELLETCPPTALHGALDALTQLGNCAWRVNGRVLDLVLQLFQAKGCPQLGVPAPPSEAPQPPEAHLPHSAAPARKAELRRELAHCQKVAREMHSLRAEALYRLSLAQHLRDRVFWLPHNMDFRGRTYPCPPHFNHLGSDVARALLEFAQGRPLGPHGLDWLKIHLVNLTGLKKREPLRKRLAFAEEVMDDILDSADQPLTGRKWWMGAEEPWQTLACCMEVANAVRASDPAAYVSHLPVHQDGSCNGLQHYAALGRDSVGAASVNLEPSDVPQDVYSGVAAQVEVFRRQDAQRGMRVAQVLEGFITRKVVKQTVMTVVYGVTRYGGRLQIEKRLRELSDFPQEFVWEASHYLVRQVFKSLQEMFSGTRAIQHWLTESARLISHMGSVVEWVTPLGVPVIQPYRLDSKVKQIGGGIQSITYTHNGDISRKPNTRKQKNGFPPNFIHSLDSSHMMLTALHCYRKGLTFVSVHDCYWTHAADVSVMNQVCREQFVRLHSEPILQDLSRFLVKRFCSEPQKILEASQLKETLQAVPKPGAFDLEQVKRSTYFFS
Sequence of DNA Pol α (P09884 whole entry): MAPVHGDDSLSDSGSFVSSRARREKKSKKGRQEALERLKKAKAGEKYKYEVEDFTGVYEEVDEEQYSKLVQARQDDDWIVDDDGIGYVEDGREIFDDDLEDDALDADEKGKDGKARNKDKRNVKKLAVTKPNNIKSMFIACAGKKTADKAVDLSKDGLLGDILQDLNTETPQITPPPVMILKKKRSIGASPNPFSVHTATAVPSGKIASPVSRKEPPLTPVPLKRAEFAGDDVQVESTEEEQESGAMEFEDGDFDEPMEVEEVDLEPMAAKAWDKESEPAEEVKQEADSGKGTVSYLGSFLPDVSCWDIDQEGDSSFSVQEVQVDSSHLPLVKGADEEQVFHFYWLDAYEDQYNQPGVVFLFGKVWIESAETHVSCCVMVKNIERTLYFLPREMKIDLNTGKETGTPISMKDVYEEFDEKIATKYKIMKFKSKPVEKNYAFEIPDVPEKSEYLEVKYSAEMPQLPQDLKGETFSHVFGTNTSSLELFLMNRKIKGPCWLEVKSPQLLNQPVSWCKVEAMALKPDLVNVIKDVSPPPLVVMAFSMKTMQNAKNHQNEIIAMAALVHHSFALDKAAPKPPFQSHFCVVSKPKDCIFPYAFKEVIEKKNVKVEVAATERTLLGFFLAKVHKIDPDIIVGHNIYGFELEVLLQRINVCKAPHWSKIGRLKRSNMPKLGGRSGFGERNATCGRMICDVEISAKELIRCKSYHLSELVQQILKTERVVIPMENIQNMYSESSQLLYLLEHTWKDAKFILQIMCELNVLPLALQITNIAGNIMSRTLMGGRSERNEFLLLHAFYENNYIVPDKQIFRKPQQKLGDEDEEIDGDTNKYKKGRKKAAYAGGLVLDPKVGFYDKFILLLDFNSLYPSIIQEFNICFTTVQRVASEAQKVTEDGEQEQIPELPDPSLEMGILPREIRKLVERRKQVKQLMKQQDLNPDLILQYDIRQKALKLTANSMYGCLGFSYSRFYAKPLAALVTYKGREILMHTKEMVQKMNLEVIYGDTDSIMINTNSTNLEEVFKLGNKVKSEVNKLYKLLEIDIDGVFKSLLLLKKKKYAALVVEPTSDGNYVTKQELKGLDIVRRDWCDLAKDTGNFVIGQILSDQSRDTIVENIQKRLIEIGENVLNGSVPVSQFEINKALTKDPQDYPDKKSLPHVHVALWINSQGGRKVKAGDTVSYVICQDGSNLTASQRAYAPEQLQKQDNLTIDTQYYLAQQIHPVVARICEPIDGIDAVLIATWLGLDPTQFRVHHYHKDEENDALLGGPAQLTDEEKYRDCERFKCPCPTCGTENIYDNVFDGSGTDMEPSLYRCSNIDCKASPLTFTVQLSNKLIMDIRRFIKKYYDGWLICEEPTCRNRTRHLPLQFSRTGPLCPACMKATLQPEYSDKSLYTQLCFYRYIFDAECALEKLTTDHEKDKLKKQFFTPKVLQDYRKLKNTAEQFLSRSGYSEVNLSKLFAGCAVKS

SMILES	SNIR [1] [%]	IC50 (DNA Pol α) [µM]	IC50 (DNA Pol γ) [µM]	IC50 [2] [µM]	EC50 [3] [µM]	EC50 [4] [µM]	EC50 [5] [µM]	EC50 (EV-D68 [6]) [µM]	EC50 (Enterovirus A71 EV-71) [µM]	EC50 [7] [µM]	CC50 [8] [µM]	CC50 (EV-D68 [9]) [µM]	CC50 (MDCK) [µM]	CC50 (LLC-MK2) [µM]	CC50 at 28 h (in vitro) [µM]
N#C[C@]1(COP(=O)(O)OP(=O)(O)OP(=O)(O)O)O[C@@H](c2ccc3c(N)ncnn23)[C@H](O)[C@@H]1O [2-NTP, ((2R,3S,4R,5S)-5-(4-Aminopyrrolo[2,1-f][1,2,4]triazin-7-yl)-2-cyano-3,4-dihydroxytetrahydrofuran-2-yl)methyl triphosphate]	0.8	> 200	> 200	> 200	–	–	–	–	–	–	–	–	–	–	–
COC(=O)[C@H](C)N[P@](=O)(OC[C@@]1(C#N)O[C@@H](c2ccc3c(N)ncnn23)[C@H](OC(=O)C(C)C)[C@@H]1OC(=O)C(C)C)Oc1ccccc1 [compound 1, GS-7682]	–	–	–	–	0.21 ± 0.05	0.061 ± 0.006	0.054 ± 0.002	0.09 ± 0.06	0.083 ± 0.035	> 2	22.2 ± 6.3	> 2	> 2	> 2	21.1 ± 4.4
